# Counter-ions that a name gives are not always drawn. Like-named read-outs stand apart in the source and are kept apart here. Marks after values point to notes of the source that are not given here.
# What was measured:
# other Hsps = experiment: Other in vitro HSP modulating effects (Table 3); type: cell-based, mouse and human; design: key: +: co-inducing activity; −: silencing activity; 0: with the experimental methods applied no other HSP modulating effects could be identified
# Procedure: (§1) The Hsp co-inducing effect of the compounds on stress response was tested on B16 mouse melanoma and SHSY5Y human neuroblastoma cell lines stably transfected with Hsp promoter probing plasmids. This kind of promoter probing, using the promoter region of a given gene conjugated with fluorescent protein is used as a best and fastest test system for finding drugs which modulate the activity of the gene followed by the given promoter (Wyshocka et al., Mol. Cel. Biochem. 215:153-156, 2000).
# (§2) Reporter plasmids, containing the Hsp70 and/or Hsp25 promoter conjugated to either YFP or GFP (yellow or green fluorescent protein), were stably transfected into the cells and the expression of YFP or GFP was followed by flow cytometry. Cells were either kept at 37° C. or exposed to heat shock at 42° C. for 1 hour followed by a 16 hour recovery period at 37° C. in the presence or absence of different concentrations of the test compound. After recovery the expression of YFP or GFP which is in straight correlation with the promoter activity of Hsp70 or Hsp27 genes was followed by measuring the fluorescence intensity of the cells by flow cytometry. Fluorescence intensity is in straight correlation with the amount of fluorescent protein (GFP or YFP) produced under the control of hsp promoter. The mean fluorescence intensity of YFP or GFP produced is shown as “Hsp promoter activity”.
# (§3) Cells were homogenously distributed on 6-well plates in 1×10^5 cells/well density. B16-pHsp25-GFP and B16-pHsp70-YFP melanoma cells were grown in RPMI-1640 medium supplemented with 10% Fetal bovine serum (FBS), penicillin (200 units/ml), streptomycin (200 μg/ml) and 2 mM L-Glutamine. For maintaining the SH-SY5Y-pHsp25-GFP and SH-SY5YpHsp70-YFP neuroblastoma cell lines Dulbecco's modified Eagle's medium (DMEM-F-12) containing 10% FBS, 2 mM L-Glutamine, penicillin (200 units/ml), streptomycin (200 μg/ml) and MEM non-essential amino acids were used. Before the treatments both cell lines were incubated at 37° C. in a saturated humidity atmosphere containing 95% air and 5% CO2. After 24 h incubation cells were pretreated with compounds of the invention in four different concentrations (usually in 3; 10; 20 and 50 μM) 30 min before the heat shock at 42° C. for 1 h and then incubated further at 37° C. for 16 h (recovery period). After this procedure cells were trypsinized and suspensed in 500 μl serum-free DMEM-F12 medium. The changes in cells' fluorescence were detected using BD FACSCalibur flow cytometer.
# SY-SY5Y and B16 cells were extracted in NP-40 lysis buffer (PBS pH 7.4, 1% protease inhibitor coctail and 1% Triton X-100). The cell extracts were then constantly agitated at 4° C. for 2 h. The cell extracts were centrifuged at 12000×g for 30 min and supernatants were saved. After the protein concentration measurement 15 μg of total protein was separated by sodium dodecyl sulfate-polyacrylamide gel electrophoresis (SDS-PAGE) under reducing conditions according to the method of Laemmli. Proteins were blotted onto PVDF membrane. The blot was incubated overnight at 4° C. in the presence of mouse α-Hsp25, α-Hsp70, α-Hsp60 és α-Hsp90 monoclonal antibodies diluted in PBS. Then, the membrane was washed three times in PBS-0.05% Tween and incubated for 1 h in peroxidase-conjugated anti-mouse IgG antibody diluted 1:50000 in PBS containing 3% non-fat dry milk. The immune complexes were detected with chemo-luminescent substrate of peroxidase according to the supplier's instructions. Images taken from the membranes were analyzed using AlphaEase FC software.
# Zucker obese rat = experiment: Insulin resistance, Zucker obese rat; type: in vivo
# Procedure: Insulin sensitizing activity of the compounds was tested in Zucker obese rat at three doses (10, 30 and 100 mg/kg), 6 weeks old Zucker obese (ZO) rats were adapted for a week before the administration of the compound. The animals were treated once a day for 5 days with compound Ex. 1 with 10, 30 and 100 mg/kg dose by stomach probe. The control group was treated with Klucel solution. The animals were kept in metabolic cage during the experiment, their food and drink consumption, the amount of urine and faeces was determined daily.
# At the end of the treatment period the animals were fasted for 16 hours, the fasting plasma glucose level was determined. At the end the animals were sacrificed and different organs were taken for Hsp measurement.
# Hsp70 promoter [1] = experiment: Hsp promoter probing, Hsp70 promoter-YFP reporter, flow cytometry (Table 3); type: cell-based, mouse and human; design: key: +: co-inducing activity; −: silencing activity; 0: with the experimental methods applied no other HSP modulating effects could be identified; details: heat shock 42° C. 1 h, 16 h recovery; B16 or SHSY5Y reporter cells, cell line per value not stated
# Procedure: as §1
# The Hsp encoding genes are transactivated through the binding of HSF to the heat shock element found on the DNA upstream of the Hsp genes, in the so called promoter region. In the absence of heat stress, the heat shock factors are present as monomers. Upon heat stress, however, the heat shock factors form trimers, which are the active components, able to bind to heat shock elements. Once HSF is bound to the heat shock element in the promoter of Hsp genes, the gene following the promoter region is transcriptionally active.
# as §2, §3
# Hsp25 = experiment: Other in vitro effects, Hsp25 (Table 3); type: cell-based, mouse and human; design: key: +: co-inducing activity; −: silencing activity; 0: with the experimental methods applied no other HSP modulating effects could be identified
# Procedure: as §1, §2
# (§4) Cells were homogenously distributed on 6-well plates in 1×10^5 cells/well density. B16-pHsp25-GFP and B16-pHsp70-YFP melanoma cells were grown in RPMI-1640 medium supplemented with 10% Fetal bovine serum (FBS), penicillin (200 units/ml), streptomycin (200 μg/ml) and 2 mM L-Glutamine. […] The changes in cells' fluorescence were detected using BD FACSCalibur flow cytometer.
# SY-SY5Y and B16 cells were extracted in NP-40 lysis buffer (PBS pH 7.4, 1% protease inhibitor coctail and 1% Triton X-100). […] The immune complexes were detected with chemo-luminescent substrate of peroxidase according to the supplier's instructions. Images taken from the membranes were analyzed using AlphaEase FC software.
# Hsp25 promoter = experiment: Hsp25 promoter-GFP reporter in SHSY5Y cells, flow cytometry; type: cell-based, human
# Procedure: as §1, §2
# The fluorescence intensity of GFP and YFP […].
# Selectivity of the Hsp25 co-inducing activity of compound of Ex. 11 is shown on FIG. 3. […] The fluorescence intensity of GFP produced as a result of Hsp25 promoter activity was measured by flow cytometry.
# as §4
# B16 melanoma cells = experiment: Experimental metastatic melanoma, B16 cells i.v. in C57Bl/6 mice; type: in vivo, mouse; details: for drug-related mortality and weight loss: 10 mg/kg i.p. daily, tumor bearing mice; for In vivo efficacy: model in which efficacy was shown
# Procedure: The anticancer activity was tested in C57Bl/6 mouse (B6), the best known syngeneic mouse model of experimental metastatic melanoma. C57Bl/6 mice injected with B16 melanoma cells subcutaneously or intramuscularly develop primary tumors that, in a part of the recipients, give rise to lung metastases. When the B16 cells are injected intravenously via the tail vein, a fraction of the tumor cells homes directly in the lung, where they develop into multiple independent tumor nodules termed “experimental metastases”. Although lung tumors are the most prominent, brain, liver and kidney tumors are also detectable in intravenously injected mice. Since the behavior of the tumor-bearing mice is quite uniform, the model is suitable for simultaneous testing of high numbers of drug candidates in a limited number of experimental animals.
# The in vivo tumor experiments were performed with cultured B16 cells that were previously re-isolated from lung metastatic nodules, therefore their metastatic potential was kept optimal. The tumor cells liberated from the tumor mass by trypsin digestion were expanded in cell culture and stored in aliquots in liquid nitrogen, while the number of in vitro passages was kept to a minimum. In the experiments, B6 mice were injected with 100 000 B16 melanoma cells i.v. via the tail vein. The drug candidates were dissolved in physiological saline then they were administered i.p. in a volume of 100 ul. Daily treatment of tumor bearing mice started at day 7 after the tumor injection. The body weight of the mice was measured at day 1, 7, 14 and 21. The survival of the tumor bearing mice was recorded daily. All experiments were performed in accordance with national and European animal welfare guidelines. To prevent unnecessary suffering, moribund mice were euthanized.
# Acute toxicity (LD50) = details: in vivo
# Hsp70 promoter [2] = experiment: Hsp70 promoter-YFP reporter in B16 F-10 melanoma cells, flow cytometry; type: cell-based, mouse; details: stress induced, FIG. 4
# Procedure: as §1
# Reporter plasmids, containing the Hsp70 and/or Hsp25 promoter conjugated to either YFP or GFP (yellow or green fluorescent protein), were stably transfected into the cells and the expression of YFP or GFP was followed by flow cytometry. […] After recovery the expression of YFP or GFP which is in straight correlation with the promoter activity of Hsp70 or Hsp27 genes was followed by measuring the fluorescence intensity of the cells by flow cytometry. Fluorescence intensity is in straight correlation with the amount of fluorescent protein (GFP or YFP) produced under the control of hsp promoter. The mean fluorescence intensity of YFP or GFP produced is shown as “Hsp promoter activity”.
# Some of the compounds are Hsp70 selective stress protein response silencers as shown on FIG. 4. […] The fluorescence intensity of YFP produced as a result of Hsp70 promoter activity was measured by flow cytometry. […]
# Ca^2+ channel = experiment: Hsp modulating versus Ca2+ antagonist effect
# B16F10 melanoma cells = experiment: Vincristine cytotoxicity in combination, B16F10 melanoma cells; type: cell-based; details: Mus musculus, read-out: IC50 of VR (50% inhibition of cell growth)
# Procedure: Cells were homogenously distributed on 96-well plates in 5×10^3 cells/well density then incubated for 24 h at 37° C. On the next day cells were treated with compounds of the invention in 100 nM-200 μM concentration range for 24 h. The viability of the cells were measured using alamarBlue® assay kit according to the supplier's instructions.
# The rationale for combination chemotherapy is to use drugs that work by different mechanisms of action, thereby decreasing the likelihood that resistant cancer cells will develop.
smiles,measurement,setting,value
"COC(=O)C1=C(C)N(C)C(C)=C(C(=O)OC)C1c1ccc(C(F)(F)F)cc1 [Example 1, Dimethyl 1,2,6-trimethyl-4-(4-trifluoromethylphenyl)-1,4-dihydropyridine-3,5-dicarboxylate]",Other in vitro effects,other Hsps,0****
same,fasting plasma glucose level,"Zucker obese rat; 10, 30 and 100 mg/kg once a day for 5 days by stomach probe, 16 h fasted, FIG. 5A",improved fasting plasma glucose level
same,Hsp70 amount in brown adipose tissue,"Zucker obese rat; 10, 30 and 100 mg/kg once a day for 5 days, Western blot, FIG. 5B",elevated Hsp70 amount in brown adipose tissue
same,In vivo efficacy,Zucker obese rat; model in which efficacy was shown,Insulin resistance
same,melting point,,159 to 160 °C
same,Hsp70 modulation,Hsp70 promoter [1],+*
"CCN1C(C)=C(C(=O)OC)C(c2ccc(C(F)(F)F)cc2)C(C(=O)OC)=C1C [Example 11, Dimethyl 1-ethyl-2,6-dimethyl-4-(4-trifluoromethylphenyl)-1,4-dihydropyridine-3,5-dicarboxylate]",Other in vitro effects: Hsp25,Hsp25,Hsp25+
same,activity of the promoter of the Hsp25 gene at 37° C.,Hsp25 promoter; 37° C.,does not affect the activity of the promoter of the Hsp25 gene at 37 °C
same,Hsp25 co-inducing activity,"Hsp25 promoter; heat stress, FIG. 3","strong, concentration dependent co-inducer for Hsp25 stress protein"
same,melting point,,135 to 137 °C
"COC(=O)C1=C(C)N(C)C(CCN(C)C)=C(C(=O)OC)C1c1ccc(C(F)(F)F)cc1.Cl (stereo not shown) [Example 14, Dimethyl 2-(2-dimethylaminoethyl)-1,6-dimethyl-4-(4-trifluoromethylphenyl)-1,4-dihydropyridine-3,5-dicarboxylate hydrochloride]",Other in vitro effects,other Hsps,0
same,Increase in life span,B16 melanoma cells; 10 mg/kg i.p. daily from day 7 to day 29,18%
same,Mean survival time,"B16 melanoma cells; 10 mg/kg i.p. daily from day 7 to day 29, control 25.25+/−4.13 days",29.91 ± 3.78 days
same,drug-related mortality and weight loss,B16 melanoma cells,did not produce drug-related mortality or weight loss
same,In vivo efficacy,B16 melanoma cells,Cancer mono-
"COC(=O)C1=C(CCN2CCCCC2)N(C)C(CCN2CCCCC2)=C(C(=O)OC)C1c1ccc(C(F)(F)F)cc1 [Example 17, Dimethyl 1-methyl-2,6-bis-(2-piperidin-1-yl-ethyl)-4-(4-trifluoromethylphenyl)-1,4-dihydropyridine-3,5-dicarboxylate dihydrochloride]",Other in vitro effects: Hsp25,Hsp25,Hsp25 0
same,Increase in life span,B16 melanoma cells; 1 mg/kg i.p. daily from day 7 to day 18,23.1%
same,Mean survival time,"B16 melanoma cells; 1 mg/kg i.p. daily from day 7 to day 18, FIG. 8",31.0 ± 3.7 days
same,Increase in life span,B16 melanoma cells; 3 mg/kg i.p. daily from day 7 to day 18,40.8%
same,Mean survival time,"B16 melanoma cells; 3 mg/kg i.p. daily from day 7 to day 18, FIG. 8",35.55 ± 3.80 days
same,Increase in life span,B16 melanoma cells; 10 mg/kg i.p. daily from day 7 to day 18,53.7%
same,Mean survival time,"B16 melanoma cells; 10 mg/kg i.p. daily from day 7 to day 18, FIG. 8",38.10 ± 10.45 days
same,drug-related mortality and weight loss,B16 melanoma cells,did not produce drug-related mortality and statistically significant drug related weight loss
same,In vivo efficacy,B16 melanoma cells,Cancer mono-
same,LD50,Acute toxicity (LD50),150 mg/kg
"CCC1=C(C(=O)OC)C(c2ccc(C(F)(F)F)cc2)C(C(=O)OC)=C(CC)N1C [Example 27, Dimethyl 2,6-diethyl-1-methyl-4-(triflouromethyl-phenyl)-1,4-dihydropyridine-3,5-dicarboxylate]",Hsp70 silencer activity,Hsp70 promoter [2],strong concentration dependent silencer for stress induced Hsp70 gene activity
same,Ca antagonist effect,Ca^2+ channel,no Ca antagonist effect
same,melting point,,136 to 138 °C
same,IC50,"B16F10 melanoma cells; B16-F10, VR with Ex 27 at 10 μM",0.4 nM
"COC(=O)C1=C(C)N(C)C(C#N)=C(C(=O)OC)C1c1ccc(C(F)(F)F)cc1 (stereo not shown) [Example 47, Dimethyl 2-cyano-1,6-dimethyl-4-(4-trifluoromethylphenyl)-1,4-dihydropyridine-3,5-dicarboxylate]",Other in vitro effects,other Hsps,0
same,melting point,,129 to 132 °C
same,Hsp70 modulation,Hsp70 promoter [1],+
"COC(=O)C1=C(C#N)NC(C)=C(C(=O)OC(C)C)C1c1cccc([N+](=O)[O-])c1 (stereo not shown) [Nilvadipine, reference compound]",index of EC50 HSP-modulating/Ca^2+ antagonist effect,Ca^2+ channel,about 1
"CC[C@]1(O)C[C@H]2CN(CCc3c([nH]c4ccccc34)[C@@](C(=O)OC)(c3cc4c(cc3OC)N(C=O)[C@H]3[C@@](O)(C(=O)OC)[C@H](OC(C)=O)[C@]5(CC)C=CCN6CC[C@]43[C@@H]65)C2)C1 [VR, vincristine, reference compound]",IC50,"B16F10 melanoma cells; B16-F10, VR treatment alone",1.3 nM

# Source: patent US10660789B2, “1,4-dihydropyridine derivatives with HSP modulating activity” (Richter Gedeon NYRT., priority 2011, dated 2020)
